Assay results: publication PMC12516397 (ACS Medicinal Chemistry Letters, 2025)
No end group written: not given here.

How the values were obtained:
[1] = target: SARS-CoV-2 main protease (Mpro) (Severe acute respiratory syndrome coronavirus 2, UniProt P0DTD1); assay: biochemical
Vero E6 cells = conditions: 72 h
[2] = pH 5

Row | Substance | IC50 [1] | CC50, cellular viability (Vero E6 cells) | Solubility [2]
1 | SAYWQWFSKFLGRIL-NH2 [TLP-2] | 11.5 ± 1 µM | 2.56 µM | limited peptide solubility
2 | FVQWFSKFLGRIL-NH2 [Temporin L, reference compound] | 39 ± 4.5 µM | 6.78 µM | –
3 | FLQWFSKFLGRIL-NH2 [TLP-1] | 11.4 ± 1.5 µM | 4.65 µM | limited peptide solubility
4 | SAFWQWFSKFLGR-NH2 [TLP-3] | 7 ± 1.5 µM | 14.91 µM | limited peptide solubility
